# Assay results reported in patent EP0640088B1, “NOVEL TRICYCLIC THIAZOLO AND THIAZINO DERIVATIVES AND ANTI-VIRAL MEDICAMENTS CONTAINING THEM” (BOEHRINGER MANNHEIM GMBH, priority 1992, dated 1993).
# Target: T1, RT aus HIV-1 (Human immunodeficiency virus type 1 group M subtype B, UniProt P04585)
# T1 construct: die gereinigte RT aus HIV-1; made in house; host or cells: E. coli
# Assay: Inhibition of reverse transcriptase (RT), screening test system measuring [3H]-thymidine-5'-triphosphate incorporation
# Assay type: biochemical
# Conditions: not given
# Excerpt: Hemmung der Reversen Transkriptase (RT)
# Das Screeningtestsystem beinhaltet die gereinigte RT aus HIV-1, die durch gentechnologische Methoden in E. coli exprimiert wurde, sowie die Komponenten des Initiationskomplexes, wie die in-vitro-Transkripte des HIV-LTR's mit der benachbarten Primer Binding Site als Template und einem zur Primer Binding Site komplementären 18mer Oligonukleotid als Primer. Gemessen wurde der [^3H]-Thymidin-5'-triphosphat-Einbau durch Auszählen im β-Counter.
row,SMILES,IC50 [nM]
1,"O=C1Nc2ccccc2C2(c3ccccc3)SCCN12 (stereo not shown) [Beispiel 1 b, 10b-Phenyl-2,3,6,10-tetrahydro-5H-thiazolo[3,2-c]quinazolin-5-on]",470
2,"O=C1Nc2ccccc2C2(c3ccccc3)SCCCN12 (stereo not shown) [Beispiel 2, 11b-Phenyl-3,4,7,11b-tetrahydro-2H,6H-[1,3]thiazino[3,2-c]quinazolin-6-on]",510
3,"Cc1cccc(C23SCCN2C(=O)Nc2ccccc23)c1 (stereo not shown) [Beispiel 5 b, 10b-(3-Methylphenyl)-2,3,6,10b-tetrahydro-5H-thiazolo[3,2-c]quinazolin-5-on]",30
4,"Cc1cccc(C23SCCN2C(=O)Nc2ccccc23)n1 (stereo not shown) [Beispiel 5 f, 10b-(6-Methyl-2-pyridyl)-2,3,6,10b-tetrahydro-5H-thiazolo[3,2-c]quinazolin-5-on]",200
5,"CN1C(=O)N2CCSC2(c2ccccc2)c2ccccc21 (stereo not shown) [Beispiel 6, 6-Methyl-10b-phenyl-2,3,6,10b-tetrahydro-5H-thiazolo [3,2-c]quinazolin-5-on]",6200
6,"S=C1Nc2ccccc2C2(c3ccccc3)SCCN12 (stereo not shown) [Beispiel 7, 10b-Phenyl-2,3,6,10b-tetrahydro-5H-thiazolo[3,2-c]quinazolin-5-thion]",30

# Same assay, conditions: purified recombinant RT from HIV-1 expressed in E. coli; HIV-LTR in-vitro transcript as template, 18mer oligonucleotide primer; [3H]-TTP incorporation, β-counter; read-out: Hemmung der HIV-RT IC50
row,SMILES,IC50 [nM]
1,"O=C1Nc2ccc(Cl)cc2C2(c3ccccc3)SCCN12 (stereo not shown) [Beispiel 4, 9-Chlor-10b-phenyl-2,3,6,10b-tetrahydro-5H-thiazolo[3,2-c]quinazolin-5-on]",30
